Tested on: HeLa cells
Assay: Inhibition of HeLa cell growth monitored by resonant sensor frequency shift and microscope images
Type: cell-based
Conditions: Niclosamide at 15 μM in culture media
Description: To investigate the inhibition effect of cell growth on the sensor response, HeLa cells were first grown until a drastic resonant frequency shift was observed. FIG. 11 is a plot of resonant frequency as a function of time shown as curve 537. Four times are identified as 5, 6, 7, and 8. FIG. 12 is a cell image at time 5 of FIG. 11. Niclosamide was introduced at time 6 of FIG. 11 into the culture media at 15 μM. […] FIG. 13 is a cell image at time 6 of FIG. 11. FIG. 14 is a cell image at time 7 of FIG. 11. FIG. 15 is a cell image at time 8 of FIG. 11.

Compound: O=C(Nc1ccc([N+](=O)[O-])cc1Cl)c1cc(Cl)ccc1O [Niclosamide]
- resonant frequency shift of sensor after introducing drug (HeLa cells grown until drastic resonant frequency shift): almost an instantaneous stop in the resonant frequency shift
- cell growth after introducing the drug (microscopic images) (HeLa cells): stop of cell growth

From patent US20260023004A1, “SIGNAL ENHANCEMENT OF RESONANT SENSOR FOR CELL MEASUREMENTS” (lowa State University Research Foundation, Inc., priority 2022, published 2026)
